Reference: patent US10975081B2, “Substituted fused pyrazole compounds and their use as LRRK2 inhibitors” (GlaxoSmithKline Intellectual Property Development Limited, priority 2015, dated 2021)

How the values were obtained:
[1] = target: Full length G2019 human LRRK2 (Homo sapiens (Human), UniProt Q5S007); assay: Full length G2019 human LRRK2 inhibition mass spectrometry assay; type: biochemical; conditions: Full length Flag-LRRK2, 25 uM LRRKtide, 2 mM ATP; read-out: Full length G2019 human LRRK2 Inhibition mass spectrometry assay (pIC50) (converted)
Method: Mass Spectrometer Settings • LRRKtide Detection settings: Q1 mass 644.8 Da, Q3 mass 638.8, declustering potential 76 volts, collision energy 37 volts, CXP 34 volts • Phospho-LRRKtide Detection settings: Q1 mass 671.4 Da, Q3 mass 638.8, Declustering potential 76 volts, Collision energy 37 volts, CXP 34 volts. • A C4 cartridge was used and running buffers were: A (aqueous) 0.1% formic acid in water B (organic) 0.1% formic acid, 80% acetonitrile, 20% water • 5. Data was analysed using ActivityBase software (IDBS). A percent conversion from LRRKtide to Phospho-LRRKtide was calculated using the following formula: % conversion=(Phospho-LRRKtide product peak area/(Phospho-LRRKtide product peak area+LRRKtide substrate peak area))*100 2) Full Length G2019 Human LRRK2 Inhibition Mass Spectrometry Assay Insect Cell Cultures
Sf9 insect cells (Invitrogen Life Technologies, Carlsbad, Calif.) were maintained at 27° C. in SF 900 II SFM in 500-ml stationary flasks. The cells were maintained in exponential growth phase and subcultured twice per week. For larger volumes, cells were grown in 2-liter shaker flasks (Erlenmeyer, Corning) while being agitated with 120 rpm at 27° C. incubator shaker.
Human G2019 LRRK2 Plasmids Preparation
Primers Used for PCR Cloning:
• pHTBV-F: SEQ ID No: 1 • LRRK2 wt-F1: SEQ ID No: 2 • LRRK2 wt-R1: SEQ ID No: 3 • LRRK2 wt-F2: SEQ ID No: 4 • LRRK2 wt-R2: SEQ ID No: 5 • LRRK2 wt-F3: SEQ ID No: 6 • pHTBV-R: SEQ ID No: 7
The primers described above were used to amplify full length human LRRK2 (amino acids from 1-2527) with N terminal Flag tag from BioCat 116313 using high fidelity PCR polymerase KOD-Plus according to the manufacturer's instructions (KOD-211, TOYOBO). The PCR product was digested with BamHI and KpnI and ligated into BamHI and KpnI digested pHTBV1mcs3 (BioCat 127555). The sequence of the target fragment was confirmed by DNA sequencing. The construct BioCat141351 was generated by Novoprotein.
The G2019 full length Flag-LRRK2 coding sequence is SEQ ID No: 8.
The translated protein sequence for human G2019 full length LRRK2 flag tagged protein is SEQ ID No: 9.
Generation of the BacMam Virus
To generate the recombinant BacMam virus, SF9 cells were seeded in 6-well tissue culture dishes at 9×10^5 cells/well and allowed to attach for 20 min. Transfection procedure was followed using AESOP AP5911v2. Briefly, DH10Bac competent cells (10361-012, Invitrogen) were transformed by the genotypically normal human LRRK2 BacMam plasmid to generate the recombinant baculovirus DNA. The Sf9 insect cells were co-transfected with the mixture of recombinant baculovirus DNA and cellfectin (10362-100, Invitrogen). After 4 h of incubation at 27° C., the transfection media was replaced with Sf-900 III SFM medium containing 5% HI FBS (Ser. No. 10/100,147, Invitrogen). The cells were further incubated for 4 days. The infected cell culture medium containing the baculovirus (P0 virus stock) was collected and amplified by further infecting the Sf9 cells at multiplicity of infection (MOI) (pfu/cell) of 0.1.
Quantification of BacMam Viral Titre by BacPAKRapid Titer
The viral titre, measured as plaque forming unit (pfu)/ml was determined using BacPAK Papid Titer Kit (631406, Clontech) according to the manufacturer's protocol. The Sf9 cells seeded in 96-well plate with 3×10^5 cells per well were incubated with serial dilution of the viral stocks for 1 h at 27° C., 50 μl methyl cellulose overlay was added to each well followed by 43-47 h incubation. The cells were then fixed in 4% paraformaldehyde (PFA). After blocking the cells with diluted normal goat serum, Mouse anti-gp64 antibody was added to the cells. After 30 min incubation, the cells were washed with phosphate buffered saline containing 0.1% Triton-X100 (PBST) and incubated for another 30 min with goat anti-mouse antibody/HRP conjugate. This was followed by blue peroxidase substrate which detects the single infected cells and foci of infected cells by their dark blue color. […]

[2] = target: LRRK2 Ser935 phosphorylation in SH-SY5Y cells over-expressing recombinant full length LRRK2 (Homo sapiens (Human), UniProt Q5S007); assay: Recombinant cellular LRRK2 AlphaScreen assay; type: cell-based; conditions: 60 minutes, read-out: Recombinant cellular LRRK2 alphaScreen assay (pIC50) (converted)
Source text: To determine the activity of compounds against LRRK2 kinase activity in cells, the observed LRRK2 kinase-dependent modulation of LRRK2 Ser 935 phosphorylation (Dzamko et al., 2010, Biochem. J. 430: 405-413) was utilized to develop a quantitative 384 well plate-based immunoassay of LRRK2 Ser935 phosphorylation in the human neuroblastoma cell line SH-SY5Y, engineered to over-express recombinant full length LRRK2 protein.
A BacMam virus expressing full length recombinant LRRK2 was purchased from Invitrogen and amplified by inoculation of SF-9 cells at MOI 0.3 for 4-5 days in Sf-900 III SFM medium supplemented with 3% fetal bovine serum. Infected cell cultures were then centrifuged at 2000 g for 20 minutes, viral supernatant titer determined by anti-gp64 plaque assay and stored at 4° C.
Affinity-purified anti-phospho LRRK2 Ser935 sheep polyclonal antibody (Dzamko et al., 2010, Biochem. J. 430: 405-413) was biotinylated by standard methods (PerkinElmer). Anti-LRRK2 rabbit polyclonal antibody was purchased from Novus Biologicals. AlphaScreen Protein A IgG Kit (including acceptor and donor beads) was purchased from Perkin Elmer.
SH-SY5Y cells were grown in DMEM/F12 medium with 10% dialysed fetal bovine serum and harvested by treatment with 0.5% trypsin-EDTA for 5 minutes at 37° C. followed by centrifugation at 1000 rpm for 4 minutes. The cell pellet was resuspended in Opti-MEM reduced serum media (Invitrogen) at 200,000 cells/ml and mixed with the BacMam LRRK2 virus at M01=50. 50 μl cell solutions were then dispensed to each well of a 384-well plate and incubated at 37° C., 5% CO2 for 24 hours.
Serial dilutions of test compounds were prepared in Opti-MEM reduced serum media (Invitrogen) and 5.6 ul transferred from compound plate to cell assay plate to achieve a top final assay concentration of 10 uM. DMSO was used in certain wells as controls. Cells were incubated at 37° C., 5% CO2 for 60 minutes. The medium was then removed and cells lysed by addition of 20 ul cell lysis buffer (Cell Signaling Technology) and incubation at 4° C. for 20 minutes. 10 ul of antibody/acceptor bead mix [( 1/1000 biotinylated-pS935 LRRK2 antibody, 1/1000 total-LRRK2 antibody, 1/100 Acceptor beads in AlphaScreen detection buffer (25 mM Hepes (pH 7.4), 0.5% Triton X-100, 1 mg/ml Dextran 500 and 0.1% BSA)] was then added to each well and plates incubated for 2 hours at ambient temperature in the dark. 10 μl of donor beads solution (1/33.3 donor beads in AlphaScreen detection buffer) was then added to each well. Following incubation for a further 2 hours at ambient temperature in the dark, plates were read on an EnVision™ plate reader at emission 520-620 nm with excitation 680 nm. Dose response curve data was based on sigmoidal dose-response model.

[3] = target: Truncated G2019 human LRRK2 (1326-2527) (Homo sapiens (Human), UniProt Q5S007); assay: Truncated G2019 human LRRK2 (1326-2527) inhibition mass spectrometry assay; type: biochemical; conditions: 6HIS-Tev-LRRK2 (1326-2527), 25 uM LRRKtide, 20 uM ATP; read-out: Truncated G2019 human LRRK2 inhibition mass spectrometry assay (pIC50) (converted)
Source text: 1) Truncated G2019 Human LRRK2 (1326-2527) Inhibition Mass Spectrometry Assay
A LRRK2 cDNA encoding residues 1326-2527 was received from Dundee University (described in M. Jaleel et al., 2007, Biochem J, 405: 407-417). This gene fragment was subcloned into pFB-HTb (Invitrogen) using BamHI and NotI restriction sites. The LRRK2 plasmid was recombined into the baculovirus genome according to the BAC-to-BAC protocol described by Invitrogen. Transfection into Spodoptera frugiperda (Sf9) insect cells was performed using Cellfectin (Invitrogen), according to the manufacturer's protocol to generate P1 and P2 baculovirus stocks.
Sf9 cells were grown in HyClone SFX (Thermo Scientific) growth media at 27° C., 80 rpm in shake flask until of a sufficient volume to inoculate a bioreactor. The cells were grown in a 20 litre working volume Wave bioreactor (GE Healthcare) at 27° C., 50% dissolved oxygen and an agitation rate 22 rocks per minute, 10 degree rock angle, 200 ml/min air with a cell concentration of approximately 6xe6 cells/ml. The cells were infected with P2 Baculovirus at a multiplicity of infection (MOI) of 3. The cultivation was continued for a 48 hour expression phase. The infected cells were removed from the growth media by centrifugation at 2500 g using a Sorvall RC 3C Plus centrifuge at 2500 g for 20 minutes. The cell pellet was immediately frozen and subsequently supplied for purification.
A 260 g pellet was allowed to thaw in a water bath at 27° C. with 800 ml lysis buffer/buffer A (50 mm Tris-HCl pH 8.5, 300 mM NaCl, 1 mm DTT, 10% glycerol, 1 ml/L Calbiochem complete protease inhibitor cocktail and benzonase (50 ul/800 ml)) before being dounce homogenised on ice using 20 strokes per 100 ml. The suspension was packed in ice and sonicated at 50% amplitude for 3 min 10 sec on/off using a ¾″ probe. The suspension was then centrifuged at 100,000 g for 90 min, at 4° C.
The lysate (700 ml) was decanted from the insoluble pellet and contacted for 3h at 4° C. with 10 ml His bind Ni NTA resin by end over end mixing. The resin was recovered by centrifugation, 3000 g, 5 min at 4° C., and packed in an XK16 column. The column was then washed with 10 column volumes buffer A, 10 column volumes buffer B (buffer A+1M NaCl) and 10 column volumes buffer C (buffer A+20 mM imidazole). The column was then eluted with 15 column volumes buffer D (buffer A+300 mM imidazole) collecting 2 ml fractions. All washes and elution were conducted at 4 ml/min.
Fractions identified by SDS-PAGE as containing protein of interest were pooled and loaded directly onto a 320 ml SEC Superdex 200 pg column that was pre-equilibrated with buffer E (50 mM Tris-HCl pH 8.5, 300 mM NaCl, 10% glycerol, 1 mM DTT). The column was loaded and eluted with 1.2 column volumes buffer E at 2 ml/min collecting 2 ml fractions. Fractions identified by SDS-PAGE as containing protein of interest were tested for activity.
Production of LRRKtide for LRRK2 Inhibition Mass Spectrometry Assay
The ‘LRRKtide’ peptide (SEQ ID NO. 10) was synthesized as follows. The protected peptide was assembled on a solid-phase synthesiser using preloaded Wang resin and utilising standard Fmoc synthesis protocols. The crude peptide was obtained after cleavage from the resin with a mixture of trifluoroacetic acid (TFA), triisopropylsilane and water (95:2.5:2.5) for 3 hours at room temperature and was then purified using a C18 reverse-phase column utilising a 0.1% TFA-buffered water/acetonitrile gradient. The resulting fractions were analysed and fractions which were >95% pure by analytical HPLC and giving the correct molecular weight (mw) (by MALDiTOF mass spectroscopy) were pooled and freeze dried. The final material was analysed by HPLC and MALDiTOF mass spectroscopy.
Truncated G2019 Human LRRK2 (1326-2527) Inhibition Mass Spectrometry Assay […]

LRRK2 Ser935 phosphorylation in SH-SY5Y cells over-expressing recombinant full length LRRK2, sequence (Q5S007 whole entry): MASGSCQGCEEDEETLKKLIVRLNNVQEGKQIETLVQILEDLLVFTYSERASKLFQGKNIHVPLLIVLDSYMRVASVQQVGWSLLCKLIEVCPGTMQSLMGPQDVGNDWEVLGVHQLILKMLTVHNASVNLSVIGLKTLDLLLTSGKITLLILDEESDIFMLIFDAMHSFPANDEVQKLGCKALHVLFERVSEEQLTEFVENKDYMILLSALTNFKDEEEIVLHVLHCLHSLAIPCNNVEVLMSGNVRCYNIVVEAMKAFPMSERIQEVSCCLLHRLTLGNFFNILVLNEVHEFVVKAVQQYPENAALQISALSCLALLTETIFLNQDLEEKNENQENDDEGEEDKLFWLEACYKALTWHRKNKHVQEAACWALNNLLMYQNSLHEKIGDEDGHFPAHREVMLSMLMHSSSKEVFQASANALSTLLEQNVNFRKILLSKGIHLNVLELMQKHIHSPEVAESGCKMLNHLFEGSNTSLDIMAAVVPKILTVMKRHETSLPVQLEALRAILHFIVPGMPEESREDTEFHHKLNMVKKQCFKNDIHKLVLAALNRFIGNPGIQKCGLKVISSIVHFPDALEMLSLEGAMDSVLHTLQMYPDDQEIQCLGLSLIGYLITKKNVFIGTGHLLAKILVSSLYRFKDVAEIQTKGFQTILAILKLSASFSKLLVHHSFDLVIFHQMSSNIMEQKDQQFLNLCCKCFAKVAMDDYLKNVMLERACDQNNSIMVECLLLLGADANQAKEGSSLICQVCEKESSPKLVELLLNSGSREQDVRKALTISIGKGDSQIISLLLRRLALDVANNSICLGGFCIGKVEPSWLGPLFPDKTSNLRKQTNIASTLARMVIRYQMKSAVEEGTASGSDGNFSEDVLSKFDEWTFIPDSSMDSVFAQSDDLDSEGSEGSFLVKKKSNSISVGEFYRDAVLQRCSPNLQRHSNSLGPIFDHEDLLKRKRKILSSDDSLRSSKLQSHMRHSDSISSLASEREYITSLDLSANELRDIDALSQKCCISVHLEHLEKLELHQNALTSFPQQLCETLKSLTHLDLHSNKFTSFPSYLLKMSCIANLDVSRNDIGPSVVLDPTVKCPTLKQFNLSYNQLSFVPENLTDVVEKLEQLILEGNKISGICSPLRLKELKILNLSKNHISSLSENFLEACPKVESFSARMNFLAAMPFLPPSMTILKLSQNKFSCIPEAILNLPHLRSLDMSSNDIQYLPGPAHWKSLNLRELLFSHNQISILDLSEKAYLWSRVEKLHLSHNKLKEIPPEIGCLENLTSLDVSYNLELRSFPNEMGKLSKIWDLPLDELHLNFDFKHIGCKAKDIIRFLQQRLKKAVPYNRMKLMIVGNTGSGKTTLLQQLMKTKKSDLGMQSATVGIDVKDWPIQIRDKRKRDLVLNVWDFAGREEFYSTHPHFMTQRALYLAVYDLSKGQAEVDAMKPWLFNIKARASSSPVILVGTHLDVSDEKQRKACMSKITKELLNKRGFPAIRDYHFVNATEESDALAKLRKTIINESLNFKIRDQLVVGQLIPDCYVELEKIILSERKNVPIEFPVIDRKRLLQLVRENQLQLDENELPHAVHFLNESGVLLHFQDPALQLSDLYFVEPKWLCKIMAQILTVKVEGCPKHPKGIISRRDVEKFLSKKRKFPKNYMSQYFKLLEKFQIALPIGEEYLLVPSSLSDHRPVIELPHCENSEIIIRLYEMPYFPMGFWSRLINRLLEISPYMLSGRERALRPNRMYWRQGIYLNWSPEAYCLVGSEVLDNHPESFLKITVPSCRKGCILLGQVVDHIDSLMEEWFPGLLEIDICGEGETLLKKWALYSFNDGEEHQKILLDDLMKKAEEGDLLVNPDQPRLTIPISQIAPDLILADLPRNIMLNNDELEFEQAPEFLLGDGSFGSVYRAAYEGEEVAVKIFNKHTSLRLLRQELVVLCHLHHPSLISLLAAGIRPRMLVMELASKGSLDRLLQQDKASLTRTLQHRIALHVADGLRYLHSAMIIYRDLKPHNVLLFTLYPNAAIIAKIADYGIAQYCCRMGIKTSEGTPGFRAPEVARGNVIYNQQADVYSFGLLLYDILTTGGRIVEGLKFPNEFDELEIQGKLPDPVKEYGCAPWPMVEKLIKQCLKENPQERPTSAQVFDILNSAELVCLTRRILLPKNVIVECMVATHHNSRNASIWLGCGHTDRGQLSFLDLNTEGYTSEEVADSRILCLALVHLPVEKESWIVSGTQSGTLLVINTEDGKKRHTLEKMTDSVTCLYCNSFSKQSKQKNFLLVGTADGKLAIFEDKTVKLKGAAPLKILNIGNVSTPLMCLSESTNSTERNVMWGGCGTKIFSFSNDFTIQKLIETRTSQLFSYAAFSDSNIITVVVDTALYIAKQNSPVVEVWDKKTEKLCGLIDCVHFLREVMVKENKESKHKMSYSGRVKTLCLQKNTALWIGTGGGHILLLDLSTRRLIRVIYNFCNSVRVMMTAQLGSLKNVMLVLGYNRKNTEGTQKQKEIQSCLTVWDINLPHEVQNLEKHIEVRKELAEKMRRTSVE
Full length G2019 human LRRK2, sequence (Q5S007 other isoform, or with tags, fused parts or gaps): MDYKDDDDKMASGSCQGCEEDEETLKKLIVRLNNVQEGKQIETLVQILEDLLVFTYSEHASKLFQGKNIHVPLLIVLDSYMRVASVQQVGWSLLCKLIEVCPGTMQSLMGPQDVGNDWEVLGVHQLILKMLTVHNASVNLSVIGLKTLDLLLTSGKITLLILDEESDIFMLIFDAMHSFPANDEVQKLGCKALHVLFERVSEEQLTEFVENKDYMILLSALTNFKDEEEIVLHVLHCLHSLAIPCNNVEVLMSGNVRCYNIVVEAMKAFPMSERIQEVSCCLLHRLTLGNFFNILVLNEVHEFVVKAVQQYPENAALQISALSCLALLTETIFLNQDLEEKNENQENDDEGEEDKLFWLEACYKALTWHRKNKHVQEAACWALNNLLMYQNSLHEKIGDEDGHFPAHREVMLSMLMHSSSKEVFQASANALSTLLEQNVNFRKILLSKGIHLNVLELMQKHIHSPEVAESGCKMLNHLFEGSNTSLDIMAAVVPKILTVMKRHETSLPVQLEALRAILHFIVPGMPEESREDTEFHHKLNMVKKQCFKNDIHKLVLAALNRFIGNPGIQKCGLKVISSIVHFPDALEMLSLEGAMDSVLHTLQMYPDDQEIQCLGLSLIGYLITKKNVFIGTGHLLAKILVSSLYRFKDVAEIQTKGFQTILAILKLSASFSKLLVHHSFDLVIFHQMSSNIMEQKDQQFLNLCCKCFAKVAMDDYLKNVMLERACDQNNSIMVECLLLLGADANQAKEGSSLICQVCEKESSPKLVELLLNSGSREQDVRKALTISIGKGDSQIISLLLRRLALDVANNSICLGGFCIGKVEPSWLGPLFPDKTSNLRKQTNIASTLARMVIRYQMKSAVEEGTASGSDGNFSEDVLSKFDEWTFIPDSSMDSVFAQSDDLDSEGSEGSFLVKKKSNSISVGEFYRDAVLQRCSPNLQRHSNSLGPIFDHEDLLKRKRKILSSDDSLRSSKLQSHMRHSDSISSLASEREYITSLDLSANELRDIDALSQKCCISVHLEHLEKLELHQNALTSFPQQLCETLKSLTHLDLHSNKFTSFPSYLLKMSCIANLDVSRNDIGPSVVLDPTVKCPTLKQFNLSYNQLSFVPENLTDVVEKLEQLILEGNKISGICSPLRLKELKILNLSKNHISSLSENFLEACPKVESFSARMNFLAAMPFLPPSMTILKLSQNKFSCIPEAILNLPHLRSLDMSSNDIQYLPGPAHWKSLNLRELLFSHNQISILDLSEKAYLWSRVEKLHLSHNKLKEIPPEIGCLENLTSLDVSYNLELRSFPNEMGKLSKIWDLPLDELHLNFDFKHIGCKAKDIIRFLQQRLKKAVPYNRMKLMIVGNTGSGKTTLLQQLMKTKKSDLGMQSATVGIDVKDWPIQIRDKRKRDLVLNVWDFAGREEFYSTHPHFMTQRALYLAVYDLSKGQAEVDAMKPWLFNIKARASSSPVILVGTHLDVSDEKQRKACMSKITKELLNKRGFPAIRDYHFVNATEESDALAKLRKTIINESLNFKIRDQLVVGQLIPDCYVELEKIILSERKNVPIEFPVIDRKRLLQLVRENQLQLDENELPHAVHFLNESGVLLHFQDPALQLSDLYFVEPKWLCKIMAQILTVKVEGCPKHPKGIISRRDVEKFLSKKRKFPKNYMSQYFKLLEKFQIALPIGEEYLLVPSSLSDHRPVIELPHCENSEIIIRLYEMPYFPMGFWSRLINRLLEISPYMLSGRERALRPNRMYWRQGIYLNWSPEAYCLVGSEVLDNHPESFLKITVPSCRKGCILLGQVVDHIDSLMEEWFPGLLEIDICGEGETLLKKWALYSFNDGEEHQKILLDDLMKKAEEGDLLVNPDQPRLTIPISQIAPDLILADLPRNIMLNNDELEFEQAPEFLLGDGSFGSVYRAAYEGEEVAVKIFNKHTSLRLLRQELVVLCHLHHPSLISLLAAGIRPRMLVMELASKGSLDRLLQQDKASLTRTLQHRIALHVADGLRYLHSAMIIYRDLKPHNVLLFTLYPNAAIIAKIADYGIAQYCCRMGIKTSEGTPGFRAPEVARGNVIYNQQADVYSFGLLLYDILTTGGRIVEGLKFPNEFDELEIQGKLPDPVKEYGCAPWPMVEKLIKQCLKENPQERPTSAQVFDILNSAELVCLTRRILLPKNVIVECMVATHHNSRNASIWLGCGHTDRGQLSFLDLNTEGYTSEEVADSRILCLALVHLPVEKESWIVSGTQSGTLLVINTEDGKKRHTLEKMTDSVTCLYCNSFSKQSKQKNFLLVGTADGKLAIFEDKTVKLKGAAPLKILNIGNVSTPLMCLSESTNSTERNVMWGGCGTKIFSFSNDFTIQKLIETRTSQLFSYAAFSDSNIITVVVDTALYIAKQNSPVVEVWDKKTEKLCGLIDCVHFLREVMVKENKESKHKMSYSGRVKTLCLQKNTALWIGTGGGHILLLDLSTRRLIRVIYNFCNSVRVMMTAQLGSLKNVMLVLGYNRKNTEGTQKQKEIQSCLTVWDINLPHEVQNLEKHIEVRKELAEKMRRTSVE

An IC50 [1] of no more than 10000 nM and an IC50 [2] of no more than 100 nM were found for `Cc1nc(N2CC(O)C2)cc(-n2ncc3cc(C)c(C4CCN(C5COC5)CC4F)cc32)n1` (single isomer, unassigned) [Example E42, (cis)-1-(6-(6-(3-Fluoro-1-(oxetan-3-yl)piperidin-4-yl)-5-methyl-1H-indazol-1-yl)-2-methylpyrimidin-4-yl)azetidin-3-ol] in this work.
An IC50 [1] of no more than 10000 nM was found for `Cc1nc(-n2ncc3cc(C)c(C4CCN(C5COC5)CC4F)cc32)cc([C@H]2C[C@@H](O)C2)n1` (single isomer, unassigned) [Example E45, (cis)-(1s,3s)-3-(6-(6-(3-Fluoro-1-(oxetan-3-yl)piperidin-4-yl)-5-methyl-1H-indazol-1-yl)-2-methylpyrimidin-4-yl)cyclobutanol] in this work.
An IC50 [1] of 7.94 nM and an IC50 [2] of 5.01 nM were found for `COc1nc(N2CCO[C@@H](CO)C2)cc(-n2ncc3cc(C)c(C4CCN(C5COC5)CC4F)cc32)n1` (single isomer, unassigned) [Example E170] in this work.
An IC50 [1] of 251 nM and an IC50 [2] of 631 nM were found for `COc1nc(N2CC(O)C2)cc(-n2ncc3cc(C)c(C4CN(C)CCO4)cc32)n1` (single isomer, unassigned) [Example E230, 1-(2-Methoxy-6-(5-methyl-6-(4-methylmorpholin-2-yl)-1H-indazol-1-yl)pyrimidin-4-yl)azetidin-3-ol] in this work.
An IC50 [3] of 12.6 nM and an IC50 [2] of 10 nM were found for `COc1nc(N2CC(O)C2)cc(-n2ncc3cc(C)c(C4CCN(C5COC5)CC4)cc32)n1` [Example E79, 1-(2-Methoxy-6-(5-methyl-6-(1-(oxetan-3-yl)piperidin-4-yl)-1H-indazol-1-yl)pyrimidin-4-yl)azetidin-3-ol] in this work.
An IC50 [1] of no more than 10000 nM and an IC50 [2] of no more than 100 nM were found for `COc1nc(N2CC(C)(O)C2)cc(-n2ncc3cc(C)c(C4CCN(C5COC5)CC4)cc32)n1` [Example E80, 1-(2-Methoxy-6-(5-methyl-6-(1-(oxetan-3-yl)piperidin-4-yl)-1H-indazol-1-yl)pyrimidin-4-yl)-3-methylazetidin-3-ol] in this work.
An IC50 [3] of 25.1 nM and an IC50 [2] of 631 nM were found for `COc1nc(N2CCNCC2)cc(-n2ncc3cc(C)c(N4CCOCC4)cc32)n1` [Example E117, 4-(1-(2-Methoxy-6-(piperazin-1-yl)pyrimidin-4-yl)-5-methyl-1H-indazol-6-yl)morpholine] in this work.
